Assay results published in US20230190924A1, “ANTIGEN OF ALLERGY AND EPITOPE THEREOF” (HOYU CO., LTD., priority 2017, published 2023).

Tested on: IgE antibodies from patients
Assay: Epitope mapping (2) overlapping (10-amino-acid peptides) and (3) alanine scanning on peptide arrays
Assay type: binding, human
Conditions: overlapping peptides with flanking sequence
Summary of the method: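 Overlapping 10-mer peptides shifted by one residue, and alanine-substituted peptides, spotted on cellulose and probed with patient and non-egg-allergic sera; IgE binding read by anti-human IgE-HRP chemiluminescence. Signal expressed relative to parent sequence and graded in bands from <20% (no binding) to ≥90% (retained binding).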

Substance	binding to IgE antibodies from patients, sequence comprising a region amino-terminally adjacent to the epitope	binding to IgE antibodies from patients, sequence comprising a region carboxy-terminally adjacent to the epitope
SEQ ID NO: 576: sequence comprising a region amino-terminally adjacent to epitope 35 (YQVSKRVS; epitope)	binding to IgE antibodies from patients	–
SEQ ID NO: 577: sequence comprising a region carboxy-terminally adjacent to epitope 35 (LNPISAKVE; epitope)	–	binding to IgE antibodies from patients
SEQ ID NO: 583: sequence comprising a region amino-terminally adjacent to epitope 36 (DIFELGLDG; epitope)	binding to IgE antibodies from patients	–
SEQ ID NO: 584: sequence comprising a region carboxy-terminally adjacent to epitope 36 (EPTLEALFG; epitope)	–	binding to IgE antibodies from patients
SEQ ID NO: 595: sequence comprising a region carboxy-terminally adjacent to epitope 37 (AKVAVKLHQK; epitope)	–	binding to IgE antibodies from patients
SEQ ID NO: 604: sequence comprising a region amino-terminally adjacent to epitope 38 (LVNYSPTK; epitope)	binding to IgE antibodies from patients	–
SEQ ID NO: 605: sequence comprising a region amino-terminally adjacent to epitope 38 (LVNYSPTKG; epitope)	binding to IgE antibodies from patients	–
SEQ ID NO: 609: sequence comprising a region carboxy-terminally adjacent to epitope 38 (LQMSSSV; epitope)	–	binding to IgE antibodies from patients
SEQ ID NO: 613: sequence comprising a region amino-terminally adjacent to epitope 39 (ANELLDR; epitope)	binding to IgE antibodies from patients	–
SEQ ID NO: 622: sequence comprising a region amino-terminally adjacent to epitope 40 (GRYLHLAAV; epitope)	binding to IgE antibodies from patients	–
SEQ ID NO: 623: sequence comprising a region amino-terminally adjacent to epitope 40 (GRYLHLAAVN; epitope)	binding to IgE antibodies from patients	–
SEQ ID NO: 624: sequence comprising a region carboxy-terminally adjacent to epitope 40 (KLEFLLSKK; epitope)	–	binding to IgE antibodies from patients
SEQ ID NO: 631: sequence comprising a region carboxy-terminally adjacent to epitope 41 (QELLFGRLD; epitope)	–	binding to IgE antibodies from patients
SEQ ID NO: 632: sequence comprising a region carboxy-terminally adjacent to epitope 41 (QELLFGRLDK; epitope)	–	binding to IgE antibodies from patients
SEQ ID NO: 644: sequence comprising a region amino-terminally adjacent to epitope 42 (QELLFGRL; epitope)	binding to IgE antibodies from patients	–
SEQ ID NO: 657: sequence comprising a region amino-terminally adjacent to epitope 46 (VPDIMKMSFD; epitope)	binding to IgE antibodies from patients	–
SEQ ID NO: 660: sequence comprising a region carboxy-terminally adjacent to epitope 46 (DSDSASGET; epitope)	–	binding to IgE antibodies from patients
SEQ ID NO: 665: sequence comprising a region carboxy-terminally adjacent to epitope 46 (SDSASGET; epitope)	–	binding to IgE antibodies from patients
SEQ ID NO: 672: sequence comprising a region amino-terminally adjacent to epitope 47 (MSFKPVYSDV; epitope)	binding to IgE antibodies from patients	–
SEQ ID NO: 676: sequence comprising a region carboxy-terminally adjacent to epitope 47 (PIEKIQVTI; epitope)	–	binding to IgE antibodies from patients

Same assay, conditions: procedures (B) overlapping and (C) alanine scanning

Substance	region within the epitope important for binding to IgE antibodies from patients
SEQ ID NO: 569: region in epitope 34 (VKLYPEKDEP; epitope)	important for binding
SEQ ID NO: 571: region in epitope 34 (KDEPLNV; epitope)	important for binding
SEQ ID NO: 573: region in epitope 34 (KDEP; epitope)	important for binding
SEQ ID NO: 579: region in epitope 35 (VSKRVS; epitope)	important for binding
SEQ ID NO: 581: region in epitope 35 (SVPGLNP; epitope)	important for binding
SEQ ID NO: 585: region in epitope 36 (GKGFE; epitope)	important for binding
SEQ ID NO: 587: region in epitope 37 (SGIV; epitope)	important for binding
SEQ ID NO: 589: region in epitope 37 (IVTPGAKVAV; epitope)	important for binding
SEQ ID NO: 592: region in epitope 37 (SGIVTPGAK; epitope)	important for binding
SEQ ID NO: 594: region in epitope 37 (IVTPGAKVAV; epitope)	important for binding
SEQ ID NO: 598: region in epitope 37 (SGIVTPGA; epitope)	important for binding
SEQ ID NO: 600: region in epitope 37 (IVTPGAKVAV; epitope)	important for binding
SEQ ID NO: 602: region in epitope 37 (TPGAKVAV; epitope)	important for binding
SEQ ID NO: 608: region in epitope 38 (PTKGYLQMSS; epitope)	important for binding
SEQ ID NO: 616: region in epitope 39 (LLDRKVALT; epitope)	important for binding
SEQ ID NO: 617: region in epitope 39 (LLDR; epitope)	important for binding

Substance	region within the epitope important for binding to IgE antibodies from patients
SEQ ID NO: 619: region in epitope 39 (DRKVALTDMT; epitope)	important for binding
SEQ ID NO: 627: region in epitope 41 (SGYLKMFG; epitope)	important for binding
SEQ ID NO: 630: region in epitope 41 (YLKMFGQELL; epitope)	important for binding
SEQ ID NO: 636: region in epitope 41 (SGYLKMFG; epitope)	important for binding
SEQ ID NO: 641: region in epitope 41 (SGYLKMF; epitope)	important for binding
SEQ ID NO: 642: region in epitope 41 (GQELL; epitope)	important for binding
SEQ ID NO: 647: region in epitope 42 (RLDKDTLQ; epitope)	important for binding
SEQ ID NO: 649: region in epitope 42 (DTLQNVLQ; epitope)	important for binding
SEQ ID NO: 658: region in epitope 46 (MKMSFDSDS; epitope)	important for binding
SEQ ID NO: 659: region in epitope 46 (MSFDSDSASG; epitope)	important for binding
SEQ ID NO: 663: region in epitope 46 (PDIMKMSFDS; epitope)	important for binding
SEQ ID NO: 664: region in epitope 46 (MSFDSDS; epitope)	important for binding
SEQ ID NO: 669: region in epitope 47 (YSDVPIEKI; epitope)	important for binding
SEQ ID NO: 674: region in epitope 47 (YSDVPIEK; epitope)	important for binding
SEQ ID NO: 680: region in epitope 47 (SFKPVY; epitope)	important for binding
